Source: US12509425B2, “Tablet comprising modoflaner as an active component” (VIRBAC, priority 2020, dated 2025)

Assay: Bioavailability study: Modoflaner plasma concentration in dogs after oral gel capsule
Type: in vivo
Details: oral gelatin capsule, same dosage per kg body weight, 5 dogs per group
Protocol: The highest plasma concentration measured was set to 1 and the other plasma concentrations are given relatively to this highest value.
Ten dogs, divided into two groups comprising five animals each, were orally treated with a gel capsule containing either modification I or IV of Modoflaner at the same dosage of Modoflaner per kg body weight.
For kinetic evaluation, blood was sampled at predetermined time points (0, 0.5, 1, 2, 4, 6, 8, 24, 32, 48, 72 and 144 hours) before and after treatment (n=12 per dog). All samples were deep-frozen immediately after plasma preparation and stored at −18° C. or below until shipment to the analytical laboratory.
The samples were analyzed with regard to their concentration in Modoflaner.
The plasma samples were deproteinized by mixing 100 μL plasma with 900 μL of a mixture of 100 mL of 0.40 g ammonium acetate in 1 L water plus 100 μL formic acid and 600 mL acetonitrile, treatment for 30 s on a vortex mixer and subsequent centrifugation. The quantitative determination was performed by HPLC (Column ZORBAX Eclipse Plus C18 Rapid Resolution HD, 2.1×50 mm, 1.8 μm Agilent Technologies; Isocratic pump: Mobile phase: Solution of methanol/water (7+3, v/v)+10 mMol ammonium formate+0.12 mL/L formic acid Flow rate: 0.5 mL/min; Binary pump: Mobile phase A: water+10 mMol ammonium formate+0.12 mL/L formic acid Mobile phase B: methanol+10 mMol ammonium formate+0.12 mL/L formic acid Flow rate: 0.6 mL/min) with detection by tandem mass spectrometry using a Sciex API 5500 mass spectrometer (negative ionisation mode using the transition from Modoflaner precursor ion at m/z 714 to its product ion at m/z 694). The lower limit of quantitation was 1 μg/L.
For calculation of the mean values, results below the limit of quantitation were set to half the limit of quantitation.

Structure (SMILES) | Cmax relative to Cmax of crystalline modification I | Tmax (listed as modification IV) [h] | Tmax [h]
O=C(Nc1cccc(C(=O)Nc2c(I)cc(C(F)(C(F)(F)F)C(F)(F)F)cc2C(F)(F)F)c1F)c1ccc(F)nc1 [6-fluoro-N-(3-(2-iodo-4-(perfluoropropan-2-yl)-6-(trifluoromethyl)phenylcarbamoyl)-2-fluoro-phenyl)-nicotinamide] | about 3 times | 4 | 
O=C(Nc1cccc(C(=O)Nc2c(I)cc(C(F)(C(F)(F)F)C(F)(F)F)cc2C(F)(F)F)c1F)c1ccc(F)nc1 [crystalline modification I of Modoflaner, 6-fluoro-N-(3-(2-iodo-4-(perfluoropropan-2-yl)-6-(trifluoromethyl)phenylcarbamoyl)-2-fluoro-phenyl)-nicotinamide] |  |  | 32
